Structures can show the parent of a compound that is named as a salt.

In experiment [1] the test system is RAF/MEK/ERK signaling (phosphorylated ERK1/2). The experiment is described as follows: Immunoblot analysis of RAF/MEK/ERK signaling in K562 cell lines. The format is cell-based, human.
Experimental: Cells were harvested and lysed with RIPA buffer (10×, 200 mM HEPES pH 6.8, 1400 mM NaCl, 25 mM MgCl2, 25 mM CaCl2, 10% NP40, and 5% sodium deoxycholate) plus phosphatase (Sigma) and protease inhibitors (Roche). […] The PKCη antibody (Santa Cruz Technology; C-15) was diluted in 5% skim milk at 1:150. The β-actin antibody (Sigma; AC-74) diluted in 5% BSA at 1:5000. Blots were developed with Pico/Femato super signal (Sigma) and visualized using autoradiography or a Bio-Rad ChemiDoc MP Imaging System.
For experiment [2], the system named is phosphorylated ERK1/2 in CML progenitor and stem cells. Nature of the experiment: Intracellular phosphorylated-ERK1/2 analysis by FACS. The format is cell-based, mouse. To be noted: 5 μM IM or 10 nM trametinib, 3 hours. On the procedure:
For intracellular phosphorylated-ERK1/2 analysis, bone marrow cells isolated from leukemic mice were treated with 5 μM IM or 10 nM trametinib for 3 hours, fixed in 4% paraformaldehyde (Electron Microscopy Sciences) for 10 min at 37° C., washed twice with wash buffer (0.05% BSA in 1×PBS), spun down, and resuspended in 100 μl wash buffer. Ice-cold methanol (900 μl) was added to the cells while gently vortexing to reach a final 90% for permeabilization. Samples were incubated on ice for 30 min, washed twice, and resuspended in 100 μl wash buffer. IgG control antibody (Cell signaling) was added (at 1:100 dilution) for 10 min at room temperature for blocking, followed by addition of 2 μl conjugated IgG control (Pacific Blue-conjugated IgG^XP Rabbit mAb, Cell Signaling) or phospho-ERK antibody (Pacific Blue-conjugated P-p44/42(T202/Y204)^XP Rabbit mAb, Cell Signaling). Samples were gently mixed and incubated at room temperature for 1 hour. Thirty minutes after the start of the incubation, a cocktail of primary antibodies for cell surface markers (described above) was added, incubated for a further 30 min, washed once with PBS, and incubated with the secondary antibody for 20 min on ice. Samples were then washed once with wash buffer prior to FACS analysis.

Experiment [3] has as its system mice with CML-like disease (Prkch KD). The experiment is described as follows: Prkch knockdown mice with CML-like disease. To be noted: IM from day 14. It counts as in vivo, mouse.
Experimental: Mice with CML-like disease were generated as previously described (22). Briefly, wild-type male C57BL/6 mice 6-8 weeks of age (Jackson Laboratory) were tail-vein injected with 5-fluorouracil (200 mg/kg; Sigma) for 4 days to enrich for slow-cycling hematopoietic stem cells. At day 5, bone marrow cells were harvested and pre-incubated overnight in the presence of IL-3, IL-6 and SCF (all from PeproTech) to increase infection efficiency. At days 6 and 7, bone marrow cells were infected with a BCR-ABL retrovirus by co-sedimentation method at 3,000 rpm for 90 min at room temperature. Four hours after the second round of retroviral infection, 0.5×10^6 bone marrow cells were injected into the tail vein of syngeneic recipient mice that had been lethally irradiated (twice at 550 R). Mice were randomly allocated to each group after bone marrow transplantation.
For the next experiment, the system named is IMSG KD K562 cells. To be noted: representative IMSG KD K562 cell lines expressing PRKCH shRNA.
Another experiment relates to K562R cells. To be noted: K562R over-express the Src family kinase LYN; cited from earlier work.

With `Cc1ccc(NC(=O)c2ccc(CN3CCN(C)CC3)cc2)cc1Nc1nccc(-c2cccnc2)n1` [IM, imatinib mesylate], in experiment [1] (K562/PRKCH cells), the “phosphorylated MEK and ERK1/2 after IM treatment” value was “maintained high levels”. The “phosphorylation of ERK1/2 following IM treatment” value in experiment [1] (all IMSG KD K562 cell lines) is recorded as “sustained levels”. Also, the “phosphorylated-ERK1/2 levels after IM treatment” value in experiment [1] (control K562 cells) is “substantial decrease”. Also, the “phosphorylated ERK1/2 in CML progenitor cells” value in experiment [2] was “reduced levels of phosphorylated ERK1/2”. In addition, in experiment [3], the “survival of IM-treated mice after knockdown of Prkch” value is “markedly increased survival”. In addition, the “IM resistance after knockdown of PRKCH” value in the experiment with IMSG KD K562 cells is given as “abrogated the IM resistance”. In addition, in the experiment on K562R cells, the “sensitivity of K562R cells” value was “resistant”.
